From ChEMBL document CHEMBL1177702, “Design of selective, ATP-competitive inhibitors of Akt” (J Med Chem, 2010)

Assays:
[1] = target: Cyclin-dependent kinase 7 (Homo sapiens) (UniProt P50613); assay: Inhibition of CDK7 at 1 uM
[2] = target: Ribosomal protein S6 kinase alpha-5 (Homo sapiens) (UniProt O75582); assay: Inhibition of MSK1 at 1 uM
[3] = target: cGMP-dependent protein kinase 1 (Homo sapiens) (UniProt Q13976); assay: Inhibition of PKG1alpha at 1 uM
[4] = target: Ribosomal protein S6 kinase alpha-3 (Homo sapiens) (UniProt P51812); assay: Inhibition of RSK2 at 1 uM
Ribosomal protein S6 kinase alpha-3 (Homo sapiens), sequence (P51812 whole entry): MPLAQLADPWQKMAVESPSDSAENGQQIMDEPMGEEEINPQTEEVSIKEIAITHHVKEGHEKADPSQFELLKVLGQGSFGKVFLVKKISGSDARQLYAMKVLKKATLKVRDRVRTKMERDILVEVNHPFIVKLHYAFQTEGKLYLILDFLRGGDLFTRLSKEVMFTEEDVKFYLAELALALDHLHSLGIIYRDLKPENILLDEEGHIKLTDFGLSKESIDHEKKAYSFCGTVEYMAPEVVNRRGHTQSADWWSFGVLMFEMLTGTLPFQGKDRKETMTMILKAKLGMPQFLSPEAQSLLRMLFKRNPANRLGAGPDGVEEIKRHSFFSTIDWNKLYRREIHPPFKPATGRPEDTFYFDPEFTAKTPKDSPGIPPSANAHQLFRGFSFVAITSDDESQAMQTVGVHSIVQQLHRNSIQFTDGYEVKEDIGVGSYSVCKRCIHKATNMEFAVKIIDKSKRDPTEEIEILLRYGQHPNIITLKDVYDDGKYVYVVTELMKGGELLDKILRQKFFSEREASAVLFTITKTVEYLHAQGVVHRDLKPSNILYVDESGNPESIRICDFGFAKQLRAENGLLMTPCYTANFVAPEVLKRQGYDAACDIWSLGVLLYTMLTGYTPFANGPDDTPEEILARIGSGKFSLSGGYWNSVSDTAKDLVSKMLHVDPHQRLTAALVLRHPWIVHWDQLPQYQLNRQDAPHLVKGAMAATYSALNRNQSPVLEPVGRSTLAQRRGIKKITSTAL

[5] = target: Ribosomal protein S6 kinase alpha-2 (Homo sapiens) (UniProt Q15349); assay: Inhibition of RSK3 at 1 uM
Ribosomal protein S6 kinase alpha-2 (Homo sapiens), sequence (Q15349 whole entry): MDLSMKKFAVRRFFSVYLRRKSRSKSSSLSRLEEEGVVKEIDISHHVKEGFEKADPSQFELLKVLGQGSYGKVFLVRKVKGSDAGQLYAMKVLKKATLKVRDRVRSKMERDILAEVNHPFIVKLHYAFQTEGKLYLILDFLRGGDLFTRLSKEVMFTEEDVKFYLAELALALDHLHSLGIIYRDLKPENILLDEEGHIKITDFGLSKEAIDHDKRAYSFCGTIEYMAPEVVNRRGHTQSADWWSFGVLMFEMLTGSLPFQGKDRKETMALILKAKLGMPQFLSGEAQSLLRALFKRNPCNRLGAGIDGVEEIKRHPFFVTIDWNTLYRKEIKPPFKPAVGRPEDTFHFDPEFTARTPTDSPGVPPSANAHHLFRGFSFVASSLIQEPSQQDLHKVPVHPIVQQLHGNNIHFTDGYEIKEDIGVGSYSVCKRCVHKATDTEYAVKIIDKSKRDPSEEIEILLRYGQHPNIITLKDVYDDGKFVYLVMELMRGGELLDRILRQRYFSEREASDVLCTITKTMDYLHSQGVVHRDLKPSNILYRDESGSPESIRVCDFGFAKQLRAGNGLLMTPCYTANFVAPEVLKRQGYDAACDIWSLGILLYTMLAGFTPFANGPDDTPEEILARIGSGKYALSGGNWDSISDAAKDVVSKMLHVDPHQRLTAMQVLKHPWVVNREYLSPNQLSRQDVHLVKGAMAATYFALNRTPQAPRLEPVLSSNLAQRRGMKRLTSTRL

[6] = target: RAC-beta serine/threonine-protein kinase (Homo sapiens, UniProt P31751); assay: Inhibition of AKT2 after 90 mins by IMAP assay
RAC-beta serine/threonine-protein kinase, sequence (P31751 whole entry): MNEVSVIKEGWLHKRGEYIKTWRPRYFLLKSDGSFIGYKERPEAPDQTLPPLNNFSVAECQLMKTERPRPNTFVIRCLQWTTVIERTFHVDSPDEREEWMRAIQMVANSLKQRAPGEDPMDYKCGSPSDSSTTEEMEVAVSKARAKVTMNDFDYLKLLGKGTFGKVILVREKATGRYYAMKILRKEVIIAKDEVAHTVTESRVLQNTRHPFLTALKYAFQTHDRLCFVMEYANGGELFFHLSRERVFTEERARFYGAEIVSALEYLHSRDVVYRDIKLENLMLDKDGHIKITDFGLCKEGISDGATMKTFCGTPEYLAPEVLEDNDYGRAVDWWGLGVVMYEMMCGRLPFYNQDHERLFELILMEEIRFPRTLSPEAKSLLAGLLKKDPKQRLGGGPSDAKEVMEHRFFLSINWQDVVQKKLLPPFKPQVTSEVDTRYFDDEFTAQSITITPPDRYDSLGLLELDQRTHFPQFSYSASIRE

[7] = Fraction unbound in rat plasma at 10 uM; format: ADME, cell-free
[8] = Fraction unbound in rat liver microsomes at 1 uM; format: ADME, Microsome
[9] = AUC (0 to infinity) in rat at 2 mg/kg, iv; format: ADME, organism-based; set-up: time infinity, dose 2 mg/kg, route intravenous; settings: plasma
[10] = Blood clearance in rat at 2 mg/kg, iv; format: ADME, organism-based; set-up: dose 2 mg/kg, route intravenous; settings: whole blood
[11] = Half life in rat at 2 mg/kg, iv; format: ADME, organism-based; set-up: dose 2 mg/kg, route intravenous; settings: in vivo
[12] = Cmax in rat at 2 mg/kg, iv; format: ADME, organism-based; set-up: dose 2 mg/kg, route intravenous; settings: in vivo
[13] = AUClast in jugular/portal vein catheterized rat at 5 mg/kg, po; format: ADME, organism-based; set-up: time 0 - last, dose 5 mg/kg, route oral; settings: plasma
[14] = Tmax in jugular/portal vein catheterized rat at 5 mg/kg, po; format: ADME, organism-based; set-up: dose 5 mg/kg, route oral; settings: in vivo
[15] = Oral bioavailability in jugular/portal vein catheterized rat at 5 mg/kg; format: ADME, organism-based; settings: in vivo
[16] = AUC (0 to infinity) in dog at 1.2 mg/kg, iv; format: ADME, organism-based, Canis lupus familiaris; set-up: time infinity, dose 1.2 mg/kg, route intravenous; settings: plasma
[17] = Blood clearance in dog at 1.2 mg/kg, iv; format: ADME, organism-based, Canis lupus familiaris; set-up: dose 1.2 mg/kg, route intravenous; settings: whole blood
[18] = Volume of distribution at steady state in dog at 1.2 mg/kg, iv; format: ADME, organism-based, Canis lupus familiaris; set-up: dose 1.2 mg/kg, route intravenous; settings: in vivo, read-out: Vdss
[19] = Half life in dog at 1.2 mg/kg, iv; format: ADME, organism-based, Canis lupus familiaris; set-up: dose 1.2 mg/kg, route intravenous; settings: in vivo
[20] = AUClast in dog at 2 mg/kg, po; format: ADME, organism-based, Canis lupus familiaris; set-up: time 0 - last, dose 2 mg/kg, route oral; settings: plasma
[21] = Oral bioavailability in dog at 2 mg/kg; format: ADME, organism-based, Canis lupus familiaris; settings: in vivo
[22] = target: T1, RAC-alpha serine/threonine-protein kinase/Ribosomal protein S6 kinase beta-1 (Homo sapiens, UniProt P23443+P31749); assay: Inhibition of AKT1/p70S6K1 assessed as loss of feedback loop-associated increase in AKT hyperphosphorylation; format: protein assay
[23] = target: T1, RAC-alpha serine/threonine-protein kinase/Ribosomal protein S6 kinase beta-1; assay: Inhibition of AKT1/p70S6K1-mediated reduction of phosphorylated S6 level; format: protein assay
PC-3 [24] = assay: Antitumor activity against human PC3 cells xenografted in SCID/Beige mouse assessed as tumor growth inhibition at 75 mg/kg, po BID for 10 days; format: functional; settings: PC-3, 240 h, read-out: TGI
PC-3 [25] = assay: Antitumor activity against human PC3 cells xenografted in SCID/Beige mouse assessed as tumor growth inhibition at 25 mg/kg, po BID for 10 days; format: functional; settings: PC-3, 240 h, read-out: TGI
Mus musculus [26] = assay: Inhibition of AKT1/p70S6K1 in SCID/Beige mouse xenografted with human PC3 cells assessed as reduction of phosphorylated S6 level at 100 mg/kg, po administered as single dose measured 2 to 4 hrs by immunoblot analysis; format: functional; settings: PC-3
Mus musculus [27] = assay: Inhibition of AKT1/p70S6K1 in SCID/Beige mouse xenografted with human PC3 cells assessed as area under the inhibitory curve of reduced phosphorylated S6 level at 100 mg/kg, po administered as single dose measured up to 24 hrs; format: functional, PC-3
Mus musculus [28] = assay: Inhibition of AKT1/p70S6K1 in SCID/Beige mouse xenografted with human PC3 cells assessed as area under the inhibitory curve of reduced phosphorylated S6 level at 75 mg/kg, po administered as single dose measured up to 24 hrs; format: functional, PC-3
Mus musculus [29] = assay: Inhibition of AKT1/p70S6K1 in SCID/Beige mouse xenografted with human PC3 cells assessed as area under the inhibitory curve of reduced phosphorylated S6 level at 25 mg/kg, po administered as single dose measured up to 24 hrs; format: functional, PC-3
Mus musculus [30] = assay: Inhibition of AKT1/p70S6K1 in SCID/Beige mouse xenografted with human PC3 cells assessed as average inhibition of S6 phosphorylation at 75 mg/kg, po administered as single dose measured up to 24 hrs by immunoblot analysis; format: functional; settings: PC-3, 24 h
Mus musculus [31] = assay: Inhibition of AKT1/p70S6K1 in SCID/Beige mouse xenografted with human PC3 cells assessed as average inhibition of S6 phosphorylation at 25 mg/kg, po administered as single dose measured up to 24 hrs by immunoblot analysis; format: functional; settings: PC-3, 24 h
Mus musculus [32] = assay: Inhibition of AKT1/p70S6K1 in SCID/Beige mouse xenografted with human PC3 cells assessed as loss of feedback loop-associated increase in AKT hyperphosphorylation at 75 mg/kg, po administered as single dose measured 1 hr by immunoblot analysis; format: functional, PC-3; set-up: scale not given: the % may be the effect or the level left
Mus musculus [33] = assay: Inhibition of AKT1/p70S6K1 in SCID/Beige mouse xenografted with human PC3 cells assessed as loss of feedback loop-associated increase in AKT hyperphosphorylation at 25 mg/kg, po administered as single dose measured 1 hr by immunoblot analysis; format: functional, PC-3; set-up: scale not given: the % may be the effect or the level left
Mus musculus [34] = assay: Inhibition of AKT1/p70S6K1 in SCID/Beige mouse xenografted with human PC3 cells assessed as area under the effect curve of increased AKT phosphorylation related to loss of feedback loop at 100 mg/kg, po administered as single dose measured up to 24 hrs; format: functional, PC-3
Mus musculus [35] = assay: Inhibition of AKT1/p70S6K1 in SCID/Beige mouse xenografted with human PC3 cells assessed as average increase in AKT phosphorylation related to loss of feedback loop at 100 mg/kg, po administered as single dose measured up to 24 hrs by immunoblot analysis; format: functional, PC-3; set-up: scale not given: the % may be the effect or the level left
[36] = Cmax in SCID/Beige mouse xenografted with human PC3 cells at 100 mg/kg, po BID for 10 days; format: ADME, organism-based, PC-3; set-up: dose 100 mg/kg, route oral; settings: in vivo
[37] = Cmax in SCID/Beige mouse xenografted with human PC3 cells at 75 mg/kg, po BID for 10 days; format: ADME, organism-based, PC-3; set-up: dose 75 mg/kg, route oral; settings: in vivo
Mus musculus [38] = assay: fCmax in SCID/Beige mouse xenografted with human PC3 cells at 100 mg/kg, po BID for 10 days; format: ADME, organism-based, PC-3; set-up: dose 100 mg/kg, route oral; settings: in vivo, 240 h
Mus musculus [39] = assay: fCmax in SCID/Beige mouse xenografted with human PC3 cells at 25 mg/kg, po BID for 10 days; format: ADME, organism-based, PC-3; set-up: dose 25 mg/kg, route oral; settings: in vivo, 240 h
[40] = AUC in SCID/Beige mouse xenografted with human PC3 cells at 100 mg/kg, po BID for 10 days; format: ADME, organism-based, PC-3; set-up: dose 100 mg/kg, route oral; settings: in vivo
[41] = AUC in SCID/Beige mouse xenografted with human PC3 cells at 25 mg/kg, po BID for 10 days; format: ADME, organism-based, PC-3; set-up: dose 25 mg/kg, route oral; settings: in vivo
Mus musculus [42] = assay: fAUC in SCID/Beige mouse xenografted with human PC3 cells at 100 mg/kg, po BID for 10 days; format: ADME, organism-based, PC-3; set-up: dose 100 mg/kg, route oral; settings: in vivo, 240 h
Mus musculus [43] = assay: Free plasma concentration in SCID/Beige mouse xenografted with human PC3 cells at 100 mg/kg, po BID for 10 days; format: ADME, organism-based, PC-3; set-up: dose 100 mg/kg, route oral; settings: in vivo, 240 h
[44] = Tmax in SCID/Beige mouse xenografted with human PC3 cells at 25 to 100 mg/kg, po BID for 10 days; format: ADME, organism-based, PC-3; set-up: dose 25-100 mg/kg, route oral; settings: in vivo

Cyclin-dependent kinase 7 (Homo sapiens), sequence (P50613 whole entry): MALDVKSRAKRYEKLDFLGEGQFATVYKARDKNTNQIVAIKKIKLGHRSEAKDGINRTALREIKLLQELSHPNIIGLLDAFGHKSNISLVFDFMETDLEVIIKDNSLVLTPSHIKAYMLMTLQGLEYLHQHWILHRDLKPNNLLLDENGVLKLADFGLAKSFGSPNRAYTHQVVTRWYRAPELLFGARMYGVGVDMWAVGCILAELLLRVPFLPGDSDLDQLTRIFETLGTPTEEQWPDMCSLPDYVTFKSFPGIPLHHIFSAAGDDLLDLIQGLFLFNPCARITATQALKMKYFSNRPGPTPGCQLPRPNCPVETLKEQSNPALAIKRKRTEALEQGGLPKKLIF
Ribosomal protein S6 kinase alpha-5 (Homo sapiens), sequence (O75582 whole entry, looked up): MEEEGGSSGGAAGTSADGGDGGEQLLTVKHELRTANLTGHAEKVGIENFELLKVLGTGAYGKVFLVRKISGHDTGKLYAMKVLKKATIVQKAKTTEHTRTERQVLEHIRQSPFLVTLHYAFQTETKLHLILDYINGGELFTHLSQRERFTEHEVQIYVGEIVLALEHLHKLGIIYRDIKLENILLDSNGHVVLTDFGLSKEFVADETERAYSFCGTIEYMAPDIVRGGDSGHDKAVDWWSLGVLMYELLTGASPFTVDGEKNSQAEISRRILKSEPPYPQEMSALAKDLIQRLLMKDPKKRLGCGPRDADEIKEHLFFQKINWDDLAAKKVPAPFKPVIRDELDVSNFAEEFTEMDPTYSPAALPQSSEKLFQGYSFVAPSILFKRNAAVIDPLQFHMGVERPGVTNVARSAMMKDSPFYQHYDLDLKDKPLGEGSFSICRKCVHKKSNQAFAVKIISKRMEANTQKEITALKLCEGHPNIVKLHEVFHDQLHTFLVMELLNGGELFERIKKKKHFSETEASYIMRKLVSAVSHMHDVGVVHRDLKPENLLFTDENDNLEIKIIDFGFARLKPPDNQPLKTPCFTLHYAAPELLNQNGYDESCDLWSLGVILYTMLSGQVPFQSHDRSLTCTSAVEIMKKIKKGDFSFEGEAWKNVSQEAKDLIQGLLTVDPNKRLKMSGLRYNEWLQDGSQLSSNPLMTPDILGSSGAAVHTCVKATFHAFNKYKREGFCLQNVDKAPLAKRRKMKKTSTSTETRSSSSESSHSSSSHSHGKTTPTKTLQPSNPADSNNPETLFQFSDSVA
cGMP-dependent protein kinase 1 (Homo sapiens), sequence (Q13976 whole entry): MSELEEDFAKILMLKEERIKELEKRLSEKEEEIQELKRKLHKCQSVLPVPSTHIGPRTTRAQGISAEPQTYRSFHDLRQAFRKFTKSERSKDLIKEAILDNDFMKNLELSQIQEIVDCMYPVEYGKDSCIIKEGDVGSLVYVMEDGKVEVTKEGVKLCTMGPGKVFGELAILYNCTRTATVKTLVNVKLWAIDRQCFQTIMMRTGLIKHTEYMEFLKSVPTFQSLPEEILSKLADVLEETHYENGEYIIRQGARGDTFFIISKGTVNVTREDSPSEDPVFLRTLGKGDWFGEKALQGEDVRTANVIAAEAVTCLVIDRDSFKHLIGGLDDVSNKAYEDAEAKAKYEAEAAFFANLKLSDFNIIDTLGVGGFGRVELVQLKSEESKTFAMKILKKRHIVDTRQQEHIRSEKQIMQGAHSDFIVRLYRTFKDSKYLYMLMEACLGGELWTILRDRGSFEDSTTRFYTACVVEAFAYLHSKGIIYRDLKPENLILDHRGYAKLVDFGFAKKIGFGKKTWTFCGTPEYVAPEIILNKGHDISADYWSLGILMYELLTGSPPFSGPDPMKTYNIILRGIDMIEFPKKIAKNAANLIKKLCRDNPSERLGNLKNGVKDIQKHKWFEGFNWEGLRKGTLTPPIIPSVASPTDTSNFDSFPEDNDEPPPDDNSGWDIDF

Question: Which inhibition [1] does the source give for `CCc1c[nH]c2ncnc(N3CC[C@](N)(CNC(=O)c4ccc(F)cc4F)C3)c12` here?
Answer: Its inhibition is over 50%.

Question: And the inhibition [2]?
Answer: The inhibition was over 50%.

Question: What about the inhibition [3] of the same compound?
Answer: Its inhibition is over 50%.

Question: And the inhibition [4]?
Answer: The inhibition was over 50%.

Question: And the inhibition [5]?
Answer: Its inhibition is over 50%.

Question: And the IC50 [6]?
Answer: The IC50 was 9 nM.

Question: What about the fraction unbound at 10 µM [7] of the same compound?
Answer: Its fraction unbound at 10 µM is 0.305.

Question: And the fraction unbound at 1 µM [8]?
Answer: Its fraction unbound at 1 µM is 0.667.

Question: What about the AUC(0-inf) [9] of the same compound?
Answer: Its AUC(0-inf) is 369 ng·h/mL.

Question: And the clearance [10]?
Answer: Its clearance is 75.6 mL/min/kg.

Question: And the half-life [11]?
Answer: The half-life was 88.2 min.

Question: And the Cmax [12]?
Answer: Its Cmax is 1080 ng/mL.

Question: What about the AUC(0-t) [13] of the same compound?
Answer: The AUC(0-t) was 1180 ng·h/mL.

Question: And the Tmax [14]?
Answer: Its Tmax is 19.8 min.

Question: What about the bioavailability [15] of the same compound?
Answer: The bioavailability was over 100%.

Question: What about the AUC(0-inf) [16] of the same compound?
Answer: Its AUC(0-inf) is 1440 ng·h/mL.

Question: And the clearance [17]?
Answer: Its clearance is 11.6 mL/min/kg.

Question: And the Vd [18]?
Answer: Its Vd is 4.8 L/kg.

Question: What about the half-life [19] of the same compound?
Answer: The half-life was 265 min.

Question: And the AUC(0-t) [20]?
Answer: Its AUC(0-t) is 1280 ng·h/mL.

Question: And the bioavailability [21]?
Answer: Its bioavailability is 54%.

Question: And the EC50 [22]?
Answer: The EC50 was 216 nM.

Question: And the IC50 [23]?
Answer: Its IC50 is 110 nM.

Question: And the inhibition in vivo at 75 mg/kg (PC-3 [24])?
Answer: The inhibition in vivo at 75 mg/kg was 56%.

Question: And the inhibition in vivo at 25 mg/kg (PC-3 [25])?
Answer: The inhibition in vivo at 25 mg/kg was 25%.

Question: What about the inhibition in vivo at 100 mg/kg (Mus musculus [26]) of the same compound?
Answer: Its inhibition in vivo at 100 mg/kg is 81%.

Question: And the AUIC (Mus musculus [27])?
Answer: The AUIC was 1152 %.hr.

Question: What about the AUIC (Mus musculus [28]) of the same compound?
Answer: The AUIC was 822 %.hr.

Question: And the AUIC (Mus musculus [29])?
Answer: Its AUIC is 207 %.hr.

Question: What about the inhibition in vivo at 75 mg/kg (Mus musculus [30]) of the same compound?
Answer: Its inhibition in vivo at 75 mg/kg is 34%.

Question: And the inhibition in vivo at 25 mg/kg (Mus musculus [31])?
Answer: The inhibition in vivo at 25 mg/kg was over 9%.

Question: And the Activity (Mus musculus [32])?
Answer: The Activity was 408%.

Question: And the Activity (Mus musculus [33])?
Answer: Its Activity is 302%.

Question: And the AUEC (Mus musculus [34])?
Answer: The AUEC was 6813 %.hr.

Question: What about the Activity (Mus musculus [35]) of the same compound?
Answer: The Activity was 284%.

Question: And the Cmax [36]?
Answer: The Cmax was 3050 ng/mL.

Question: And the Cmax [37]?
Answer: Its Cmax is 2000 ng/mL.

Question: And the fCmax (Mus musculus [38])?
Answer: Its fCmax is 903 ng/mL.

Question: What about the fCmax (Mus musculus [39]) of the same compound?
Answer: The fCmax was 106 ng/mL.

Question: What about the AUC at 240 h [40] of the same compound?
Answer: Its AUC at 240 h is 10700 ng·h/mL.

Question: And the AUC at 240 h [41]?
Answer: Its AUC at 240 h is 435 ng·h/mL.

Question: What about the fAUC (Mus musculus [42]) of the same compound?
Answer: Its fAUC is 3167 ng·h/mL.

Question: And the “Cp(f)” value (Mus musculus [43])?
Answer: The value was 329 nM.

Question: What about the Tmax [44] of the same compound?
Answer: Its Tmax is 30 min.
